# Experimental data reported in patent US8541670B2, “Compositions and methods for inhibiting tumor cell growth” (priority 2007, dated 2013).
# Where no end group is shown, it is not given here.
# Key:
# [1] = target: T1, SGK (Homo sapiens, UniProt O00141); assay: In vitro kinase assay SGK; type: biochemical; details: ten times higher concentration than 0.1 μM
# T1 construct: endogenous in cells
# T1 sequence (O00141 1-431): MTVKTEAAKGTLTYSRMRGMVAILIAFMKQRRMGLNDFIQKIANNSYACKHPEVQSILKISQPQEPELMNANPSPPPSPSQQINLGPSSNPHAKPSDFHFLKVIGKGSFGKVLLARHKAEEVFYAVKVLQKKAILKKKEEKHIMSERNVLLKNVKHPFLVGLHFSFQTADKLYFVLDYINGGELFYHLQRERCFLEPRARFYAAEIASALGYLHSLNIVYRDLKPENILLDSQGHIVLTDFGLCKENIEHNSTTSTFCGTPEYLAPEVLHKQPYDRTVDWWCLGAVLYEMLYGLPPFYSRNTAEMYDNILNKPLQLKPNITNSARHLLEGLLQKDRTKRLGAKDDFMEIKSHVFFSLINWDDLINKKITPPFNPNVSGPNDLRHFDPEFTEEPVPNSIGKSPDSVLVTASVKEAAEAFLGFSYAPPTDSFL
# Description: As a specific substrate, the phosphorylation level of GSK-3[…] at Ser-9 was also evaluated. […] The decrease was specific to the AKT phosphorylation site on GSK-3[…] at Ser-9, since a change in the phosphorylation level of GSK-3[…] at Tyr-216 or GSK-3[…] at Tyr-279 was not observed. Moreover, the in vivo reduction of the phosphorylation of AKT substrates was more obvious at the injection site, since a significant change in the phosphorylation of AKT substrates in the frontal cortex or cerebellum between the two hemispheres was not observed. […] To test the specificity/selectivity of ZaTa as the inhibitor of AKT1 versus the other major kinases, a series of in vitro kinase assays was performed at IC50 for AKT1 and at ten times higher concentrations. A panel of the following 32 kinases was first tested in vitro using the active form of each kinase and a specific substrate: AKT2, AKT3, PKA, PKC[…], PKC, PI3K[…], PI3K[…], PI3K, SGK, PAK2, PAK3, SAPK2/p38, Abl, CaMKII, CDK1/cyclinB, CDK5/p35, CK1, CK2, CSK, GSK3[…], GSK3[…], JNK1[…]1, MAPK1, p70S6K, PDGFR[…], PDGFR[…], PDK1, PKG1[…], TrkB, JAK2, JAK3, and Syk. […] However, at ten times higher concentration, ZaTa inhibited AKT2 (63%), PI3K[…] (72%), p70S6K (64%), SGK (73%), PAK3 (83%), JAK3 (79%), TrkB (84%), and Abl (42%). […]
# [2] = target: T2, AKT (Homo sapiens, UniProt P31749); assay: Screen of PKAc peptide library for effect on catalytic activity of AKT; type: biochemical; details: single peptide
# T2 construct: purchased Upstate Biotechnology
# T2 sequence (P31749 whole entry): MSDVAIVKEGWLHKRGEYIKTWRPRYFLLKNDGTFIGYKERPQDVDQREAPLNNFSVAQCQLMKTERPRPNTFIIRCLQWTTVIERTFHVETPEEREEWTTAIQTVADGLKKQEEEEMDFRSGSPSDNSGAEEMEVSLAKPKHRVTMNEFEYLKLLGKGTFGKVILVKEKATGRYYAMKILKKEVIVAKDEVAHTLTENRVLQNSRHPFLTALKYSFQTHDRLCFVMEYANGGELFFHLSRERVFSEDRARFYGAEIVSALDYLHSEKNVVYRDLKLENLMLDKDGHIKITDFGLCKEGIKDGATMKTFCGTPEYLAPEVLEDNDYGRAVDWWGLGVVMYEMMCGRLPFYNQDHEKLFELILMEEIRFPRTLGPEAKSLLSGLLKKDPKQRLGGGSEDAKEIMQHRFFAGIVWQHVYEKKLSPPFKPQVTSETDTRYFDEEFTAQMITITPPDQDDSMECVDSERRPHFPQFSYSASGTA
# From the text: Unlike PKAc and protein kinase C (PKC) for which potent inhibitor peptides are readily available and widely used, inhibitors of AKT are generally lacking (Brazil, et al. (2004) supra). […] Moreover, optimal substrate motifs for AKT have been modified to design AKT inhibitors (Obata, et al. (2000) J. Biol. Chem. 275:36108-36115). Because the full-length PKAc protein inhibited the catalytic activity of AKT, a peptide library based on the human (GENBANK Accession No. NP_002721; SEQ ID NO:1) and bovine (GENBANK Accession No. CAA47627; SEQ ID NO:2) PKAc protein sequences was designed and synthesized. This library contained 96 overlapping peptides (Table 1), covering the full-length protein sequence of human and bovine PKAc from the N- to C-terminus. The library was extensively screened to identify fragments of PKAc that mediated the inhibitory effect of PKAc toward AKT.
# These peptides included peptide 49 (SEQ ID NO:56), 53 (SEQ ID NO:60), 62 (SEQ ID NO:69), 63 (SEQ ID NO:70) and 64 (SEQ ID NO:71). Combinations of consecutive overlapping peptide fragments were also assayed for an effect on the catalytic activity of AKT. A significant inhibitory effect was also observed when peptides 25 through 36 were combined (i.e., SEQ ID NOs:32-43), peptides 37 through 48 were combined (i.e., SEQ ID NOs:44-55), peptides 49 through 60 were combined (i.e., SEQ ID NOs:56-67), and peptides 61 through 72 were combined (i.e., SEQ ID NOs:68-79).
# [3] = target: AKT-PKAc complex (Mus musculus, UniProt P31750); assay: Co-immunoprecipitation of AKT-PKAc complex in N2a cells; type: cell-based; set-up: Neuroblastoma 2a (N2a) neurons expressing an endogenous level of AKT and PKAc; endogenous in cells; host or cells: N2a neuroblastoma cells; details: 24-hour treatment
# Chain of AKT-PKAc complex (P31750 whole entry, one chain of several): as the sequence (P31749 whole entry) above, with S2N, A50S, T100A, K112R, E117T, K389T, G410N, H415D counted along it
# Description: Accordingly, the stability and phenotypic consequences of the AKT-PKAc complex was also analyzed in cultured neurons. N2a cells were treated with vehicle, ZaTa or control peptide for 24 hours. Media was removed after the 24-hour treatment and an equal number of cells from each treatment group was either cultured for another 24 hours without treatment, or lysed and subjected to immunoprecipitation with an antibody against AKT. Those cells cultured for another 24 hours were also harvested and subjected to immunoprecipitation. In parallel, the number of individual neurons with neurites was counted. […] Live images of N2a neurons were captured following treatment with vehicle or ZaTa (2 or 5 μM). […] ZaTa-mediated changes included a progressive loss of neurites, inhibition of new neurite formation, loss of cell motility, as well as formation of large cell colonies.
sequence,measurement,setting,value
AKRVKGRTWTLCGTPEY [ZaTa],inhibition of SGK,[1],73%
same,"inhibitory effect toward AKT, individual library peptides",[2],significant inhibitory effects
same,"amount of PKAc in physical contact with AKT, N2a cells",[3],reduced the amount of PKAc in physical contact with AKT
